In patent publication US6579882B2, “Cell adhesion-inhibiting antiinflammatory compounds” (Abbott Laboratories, priority 1998, dated 2003):

Tests used:
E-Selectin = assay: CAM ELISA: E-selectin expression on TNF-stimulated HUVECs; type: cell-based; conditions: 1 μM compound, primary human umbilical vein endothelial cells, compound 24 hours, then TNF 5 ng/mL 6 hours; for inhibition at 1 µM: Homo sapiens, Endothelial cell
Protocol: (§1) Pooled primary human umbilical vein endothelial cells (HtVEC's) (Clonetics) between passages 3 and 7 were plated in 96-well plates (Costar), 100 μL/well, 5×10^4 cells/mL in Clonetics EBM/2% FBS/EGF/Bovine brain extract/gentamicin in the absence of hydrocortisone. The following day, compounds of the invention were added in 10 μL/well medium, and the plates were incubated at 37° C. 24 hours after compound addition, TNF (Gibco/BRL) in 10 μL/well medium was added to a final concentration of 5 ng/mL, and the cells were incubated an additional 6 hours at 37° C. Then media was removed, and the plates were washed once with D-PBS (Gibco/BRL) and treated with primary antibodies (Becton Dickinson, City), 100 μL/well in D-PBS/2% BSA (Sigma)/0.01% azide. Primary antibodies at an initial concentration of 1 mg/mL were used at the following dilutions: anti-ELAM-1, 1:2000, anti-ICAM-1, 1:2000 and anti-VACM-1, 1:3000. Plates were stored overnight at 4° C., washed 3 times with D-PBS, and treated with secondary antibody (Jackson Labs), 100 μL/well 1:8000 dilution HRP-conjugated donkey anti-mouse IgG(H+L) in D-PBS/2%BSA. Plates were incubated a minimum of 1 hour at room temperature, washed 3 times with D-PBS and treated with 100 μL of orhto-phenylene diamine-2 HCl reagent per well. Plates were developed approximately 15 minutes and neutralized with 100 μL/well 1N sulfuric acid. Absorbance was read at 490 nm.

ICAM-1 = assay: CAM ELISA: ICAM-1 expression on TNF-stimulated HUVECs; type: cell-based; conditions: 1 μM compound, primary human umbilical vein endothelial cells, compound 24 hours, then TNF 5 ng/mL 6 hours; for inhibition at 1 µM: Homo sapiens, Endothelial cell
Protocol: as §1

VCAM-1 = assay: CAM ELISA: VCAM-1 expression on TNF-stimulated HUVECs; type: cell-based; conditions: 1 μM compound, primary human umbilical vein endothelial cells, compound 24 hours, then TNF 5 ng/mL 6 hours; for inhibition at 1 µM: Homo sapiens, Endothelial cell
Protocol: as §1

Compound | inhibition at 1 µM (E-Selectin) | inhibition at 1 µM (ICAM-1) | inhibition at 1 µM (VCAM-1) | CAM ELISA % Inhibition at 1 μM E-Selectin (E-Selectin) | CAM ELISA % Inhibition at 1 μM ICAM-1 (ICAM-1) | CAM ELISA % Inhibition at 1 μM VCAM-1 (VCAM-1) | melting point
Cc1ccc(Oc2cncc3sc(C(N)=O)cc23)cc1 [Example 60, 4-(4-methylphenoxy)thieno[2,3-c]pyridine-2-carboxamide] | 74% | 71% | 42% | – | – | – | –
CCOCCOCCOCC1(c2ccc(Oc3cncc4sc(C(=O)NC)cc34)cc2)CC1 [Example 226] | – | – | – | 77% | 74% | 56% | –
NC(=O)c1sc2cncc(Cl)c2c1N [Example 301, 3-Amino-4-chlorothieno[2,3-c]pyridine-2-carboxamide] | 44% | 48% | 34% | – | – | – | –
NC(=O)c1cc2c(OCc3ccccc3)cncc2s1 [Example 236, 4-(Benzyloxy)thieno[2,3-c]pyljdine-2-carboxamide] | – | – | – | 59% | 59% | 33% | –
O=C(Nc1cc2c(Oc3ccc(Cl)cc3)cncc2s1)OC1CCOC1 (centres unmarked) [Example 89, N-(4-(4-chlorophenoxy)thieno[2,3-c]pyridin-2-yl)-O-(3-tetrahydrofuranyl)carbamate] | – | – | – | 62% | 64% | 50% | –
OCC(O)c1cc2c(Oc3ccc(Cl)cc3)cncc2s1 (centres unmarked) [Example 254, 1-[4-(4-Chlorophenoxy)thieno[2,3-c]pyridin-2-yl]-1,2-ethanediol] | 24% | 28% | 24% | – | – | – | –
CNC(=O)c1cc2c(Oc3ccc(C(F)(F)F)cc3)cncc2s1 [Example 183, N-Methyl-4-[4-(trifluoromethyl)phenoxy]thieno[2,3-c]pyridine-2-carboxamide] | 63% | 69% | 48% | – | – | – | –
CNC(=O)c1cc2c(Oc3ccc(N4CCOCC4)cc3)cncc2s1 [Example 190C, N-Methyl-4-[4-(4-morpholinyl)phenoxy]thieno[2,3-c]pyridine-2-carboxamide] | 70% | 65% | 37% | – | – | – | –
Nc1nnc(-c2cc3c(Oc4ccc(C(F)(F)F)cc4)cncc3s2)o1 [Example 280, 5-{4-[4-(Trifluoromethyl)phenoxy]thieno[2,3-c]pyridin-2-yl}-1,3,4-oxadiazol-2-amine] | 73% | 77% | 69% | – | – | – | –
Cc1c(C(N)=O)sc2cncc(Oc3ccc(Cl)cc3)c12 [Example 125, 4-(4-Chlorolphenoxy)-3-methylthienol[2,3-c]pyridine-2-carboxamide] | – | – | – | 72% | 69% | 44% | –
CC(C)(C)OC(=O)Nc1csc(-c2cc3c(Oc4ccc(Cl)cc4)cncc3s2)n1 [Example 294, tert-Butyl 2-[4-(4-Chlorophenoxy)thieno[2,3-c]pyridin-2-yl]-1,3-thiazol-4-ylcarbamate] | 46% | 45% | 24% | – | – | – | –
CSc1nnc(-c2cc3c(Oc4ccc(Cl)cc4)cncc3s2)o1 [Example 281] | – | – | – | 18% | 25% | 20% | –
CNC(=O)C(O)C(O)c1cc2c(Oc3ccc(Br)cc3)cncc2s1 (centres unmarked) [Example 261, Methyl 3-[4-(4-Bromophenoxy)thieno[2,3-c]pyridin-2-yl]-2,3-dihydroxypropanamide] | 20% | 16% | 0% | – | – | – | –
Nc1nc(-c2cc3c(Oc4ccc(Cl)cc4)cncc3s2)no1 [Example 289, 3-[4-(4-Chlorophenoxy)thieno[2,3-c]pyridin-2-yl]-1,2,4-oxadiazol-5-amine] | 64% | 62% | 52% | – | – | – | –
CN(C)C(=O)c1cc2c(Oc3ccc(Cl)cc3)cncc2s1 [Example 104, 4-(4-chlorophenoxy)-N,N-dimethylthieno[2,3-c]pyridine-2-carboxamide] | 78% | 72% | 53% | – | – | – | –
CNC(=O)c1cc2c(Oc3ccc(C(F)(F)CO)cc3)cncc2s1 [Example 229] | – | – | – | 54% | 55% | 46% | –
Cc1ccc(Sc2ccnc3cc(C(N)=O)sc23)cc1 [Example 135, 7-[(4-methylphenyl)thio]thieno[3,2-b]pyridine-2-carboxamide] | 29% | 22% | 34% | – | – | – | –

Compound | inhibition at 1 µM (E-Selectin) | inhibition at 1 µM (ICAM-1) | inhibition at 1 µM (VCAM-1) | CAM ELISA % Inhibition at 1 μM E-Selectin (E-Selectin) | CAM ELISA % Inhibition at 1 μM ICAM-1 (ICAM-1) | CAM ELISA % Inhibition at 1 μM VCAM-1 (VCAM-1) | melting point
NC(=O)c1cc2c(Oc3ccc(Cl)cc3)c(Cl)ncc2s1 [Example 340, 5-Chloro-4-(4-chlorophenoxy)thieno[2,3-c]pyridine-2-carboxamide] | 18% | 33% | 20% | – | – | – | –
CNC(=O)c1sc2cncc(Oc3ccc(Cl)cc3)c2c1C [Example 303, 4-(4-Chlorophenoxy)-N, 3-dimethylthieno[2,3-c]pyridine-2-carboxamide] | 65% | 66% | 33% | – | – | – | –
COc1ccccc1-c1cc2c(Oc3ccc(Cl)cc3)cncc2s1 [Example 124, 4-(4-chlorophenoxy)-2-(2-methoxyphenyl)thieno[2,3-c]pyridine] | 18% | 29% | 26% | – | – | – | –
NC(=O)CNC(=O)c1cc2c(Oc3ccc(Br)cc3)cncc2s1 [Example 161, N-(2-Amino-2-oxoethyl)-4-(4-bromophenoxy)thieno[2,3-c]pyridine-2-carboxamide] | 51% | 58% | 51% | – | – | – | –
CNC(=O)c1cc2c(Oc3ccc(C4(CO)CC4)cc3)cncc2s1 [Example 225, 4-{4-[1-(Hydroxymethyl)cyclopropyl]phenoxy}-N-methylthieno[2,3-c]pyridine-2-carboxamide] | 75% | 78% | 60% | – | – | – | –
NC(=O)c1cc2c(-c3ccc(C(F)(F)F)cc3)cncc2s1 [Example 95, 4-[4-(trifluoromethyl)phenyl]thieno[2,3-c]pyridine-2-carboxamide] | 85% | 71% | 61% | – | – | – | –
Nc1nnc(-c2cc3c(Oc4ccc(Cl)cc4)cncc3s2)o1 [Example 275, 5-[4-(4-Chlorophenoxy)thieno[2,3-c]pyridin-2-yl]-1,3,4-oxadiazol-2-amine] | 73% | 72% | 64% | – | – | – | –
CNC(=O)c1cc2c(Oc3ccc(/C=C/C(=O)NCCN4CCOCC4)cc3)cncc2s1 [Example 210] | – | – | – | 64% | 58% | 42% | –
NC(=O)c1cc2c(Oc3cccnc3)cncc2s1 [Example 170, 4-(3-Pyridinyloxy)thieno[2,3-c]pyridine-2-carboxamide] | 66% | 67% | 53% | – | – | – | –
4-(4-Chlorobenzoyl)-N-methylthieno[2,3-c]pyridine-2-carboxamide [Example 237I] | – | – | – | 71% | 77% | 54% | –
NC(=O)c1cc2c(Oc3ccc(Br)cc3)cnc(Cl)c2s1 [Example 316, 4-(4-Bromophenoxy)-7-chlorothieno[2,3-c]pyridine-2-carboxamide] | 76% | 68% | 42% | – | – | – | –
Cc1nnc(-c2cc3c(Oc4ccc(C(F)(F)F)cc4)cncc3s2)o1 [Example 290, 2-(5-Methyl-1,3,4-oxadiazol-2-yl)-4-[4-(trifluoromethyl)phenoxy]thieno[2,3-c]pyridine] | 42% | 53% | 48% | – | – | – | –
O=C(Nc1ccc(Cl)cc1)c1cnc2sccc2c1Cl [Example 133, 4-chloro-N-(4-chlorophenyl)thieno[2,3-b]pyridine-5-carboxamide] | – | – | – | – | – | – | 199 to 202 °C
Clc1ccc(Oc2cncc3sc(C4=NCCN4)cc23)cc1 [Example 298, 4-(4-Chlorophenoxy)-2-(4,5-dihydro-1H-imidazol-2-yl)thieno[2,3-c]pyridine] | – | – | – | – | – | – | 154 to 155 °C
Cc1cc(C)cc(Sc2cncc3sc(C(N)=O)cc23)c1 [Example 51, 4-[(3,5-dimethylphenyl)thio]thieno[2,3-c]pyridine-2-carboxamide] | – | – | – | – | – | – | 177 to 179 °C
NC(=O)NCc1cc2c(Oc3ccc(Cl)cc3)cncc2s1 [Example 258, N-1[4-(4-Chlorophenoxy)thieno[2,3-c]pyridin-2-yl]methyl urea] | – | – | – | – | – | – | 202 to 204 °C
Clc1ccc(Oc2cncc3sc(C4=NCCO4)cc23)cc1 [Example 296, 4-(4-Chlorophenoxy)-2-(4,5-dihydro-1,3-oxazol-2-yl)thieno[2,3-c]pyridine] | – | – | – | – | – | – | 158 to 160 °C (dec.)
